Results: US20230263797A1, “Mammalian Hybrid Pre-Autophagosomal Structure HyPAS and Compositions and Methods for the Treatment of Coronavirus Infections and Related Disease States” (UNM Rainforest Innovations, priority 2021, published 2023)

Tests used:
HyPAS formation = assay: High content microscopy (HCM) quantification of HyPAS formation (overlap between FIP200 and FLAG-ATG16L1); format: cell-based, human
Protocol: (§1) HCM was performed as described previously (Kumar et al., 2019). Cells were stimulated for autophagy by incubating in EBSS for 2 h followed by fixation with 4% paraformaldehyde for 5 mins. Cells were permeabilized with 0.1% saponin and blocked in 3% BSA for 30 mins followed by incubation with primary antibody for 6 h and secondary antibody for 1 h. High content microscopy with automated image acquisition and quantification was carried out using a Cellomics HCS scanner and iDEV software (Thermo) in 96-well plates (Kumar et al., 2019). For HCM experiments >500 primary objects were counted per well, minimum 6 wells were counted per experiments and data presented in figures are derived from at least 3 independent experiments.
Immunofluorescence confocal microscopy was carried out as described previously (Kumar et al., 2019). Briefly, cells were plated onto coverslips in 6 well or 12-well plates. Transfected cells were incubated in full media or EBSS (Earle's Balanced Salt Solution) for 2 h and fixed in 4% paraformaldehyde for 10 min followed by permeabilization with 0.1% saponin in 3% BSA. Cells were blocked 3% BSA and then incubated with primary antibodies for 4 h. Cells were washed three times with PBS and then incubated with appropriate secondary antibodies (Invitrogen) for 1 h at room temperature. Coverslips were then mounted using ProLong Gold Antifade Mountant (Invitrogen) and analyzed by confocal microscopy using the Zeiss LSM510 Laser Scanning Microscope.

[1] = test system: HyPAS formation in vitro (GFP-FIP200 and mCherry-ATG16L1 membranes); assay: In vitro fusion ivitHC assay between GFP-FIP200 and mCherry-ATG16L1 membranes; format: biochemical; conditions: vesicles from cells induced for autophagy; BAPTA used at 20 μM
Protocol: 293A WT or SIGMAR1^KO cells were plated in 96 well plates and transfected with indicated Keima plasmids. Cells were incubated in full media or induced for autophagy by incubating with EBSS for 8 h. Cells were then incubated in full media and incubated with Hoechst 33342 for ten minutes in full media and then acquired for Keima fluorescence at 440 nm and 560 nm using the Cell Insight CX7 High-Content Screening (HCS) Platform (Thermo)(Kumar et al., 2019). In Vitro Fusion ivitHC Assay In vitro fusion assay was developed for HCM platform by modifying a previously described assay (Matsui et al., 2018a; Moreau et al., 2011). […]
One hypothesis that emerged from the above studies is that FIP200 and ATG16L1 represent two precursor membranes with STX17 facilitating heterotypic fusion between them early in autophagy. […] This method mixes vesicles from different cells expressing green (GFP-FIP200) and red (mCherry-ATG16L1) markers and after addition of an ATP and ATP-regenerating system vesicle fusion is monitored by fluorescence microscopy. We adapted this to permit HCM quantification allowing highly powered analyses and termed it IvitHC (in vitro fusion high content assay) (FIG. 2A). […]

[2] = test system: STX17 and E-SYT2 interactions; assay: Co-IP analysis of interactions of STX17 with E-SYT2 in 293T cells; format: cell-based; conditions: CQ treatment
Protocol: (§2) Immunoblotting and co-immunoprecipitation (co-IP) were performed as described previously (Kumar et al., 2018). For co-IP, cells were transfected with 10 μg of plasmids, wherever stated, and lysed in NP-40 buffer containing protease inhibitor cocktail (Roche, cat #11697498001) and PMSF (Sigma, cat #93482). Lysates were mixed with 5 μg antibody and incubated at 4° C. for overnight followed by incubation with Dynabeads protein G (Life Technologies) for 4 h, at 4° C. Beads were washed three times with PBS and then boiled with SDS-PAGE buffer for analysis of interacting protein by immunoblotting.

[3] = test system: STX17 and SERCA2 interactions; assay: Co-IP analysis of interactions of STX17 with SERCA2 in 293T cells; format: cell-based; conditions: CQ treatment
Protocol: as §2

[4] = test system: LC3-ATG16L1 overlap in HeLa cells; assay: HCM colocalization between FLAG-ATG16L1 and LC3 (LAP-like noncanonical autophagy); format: cell-based, human; conditions: WT or STX17KO HeLa cells; monensin 100 μM for 1 h
Protocol: as §1, with “Cells were stimulated for autophagy by incubating in EBSS for 2 h followed by fixation with 4% paraformaldehyde for 5 mins.” left out

CC(=O)OCOC(=O)CN(CC(=O)OCOC(C)=O)c1ccccc1OCCOc1ccccc1N(CC(=O)OCOC(C)=O)CC(=O)OCOC(C)=O [BAPTA-AM]
HyPAS formation (HyPAS formation; STX17KO HeLa cells, starvation-induced autophagy, BAPTA-AM treatment): did not further affect
HyPAS formation (HyPAS formation; WT HeLa cells, starvation-induced autophagy (EBSS, 2 h), BAPTA-AM treatment): reduced

CN(C)CCN(C)CCc1ccc(Cl)c(Cl)c1 [BD1047, BD-1047]
HyPAS formation induced by starvation (HyPAS formation; HeLa cells induced for autophagy (EBSS, 2 h), 10 μM for 1 h): inhibited

CCN(CC)CCCC(C)Nc1ccnc2cc(Cl)ccc12 (stereo not shown) [CQ, chloroquine]
HyPAS formation in vitro (IvitHC) [1]: inhibited
STX17 and E-SYT2 interactions (co-IP) [2]: inhibited
STX17 and SERCA2 interactions (co-IP) [3]: did not inhibit

C/C=C(/C)C(=O)O[C@H]1C(C)=C2[C@H]([C@@H]1OC(=O)CCCCCCC)[C@@](C)(OC(C)=O)C[C@H](OC(=O)CCC)[C@@]1(O)[C@H]2OC(=O)[C@@]1(C)O [TG, thapsigargin]
Effect of TG on HyPAS formation (HyPAS formation; STX17KO HeLa cells): abrogated
HyPAS formation (HyPAS formation; WT HeLa cells, basal conditions, thapsigargin treatment): increased

COc1ccc(CCN2CCN(CCCc3ccccc3)CC2)cc1OC [cutamesine]
HyPAS formation (HyPAS formation; cells grown in full medium, 100 nM for 2 h): induced

CC[C@@]1([C@@H]2O[C@@H]([C@H]3O[C@@](O)(CO)[C@H](C)C[C@@H]3C)C[C@@H]2C)CC[C@H]([C@]2(C)CC[C@]3(C[C@H](O)[C@@H](C)[C@@H]([C@@H](C)[C@@H](OC)[C@H](C)C(=O)O)O3)O2)O1 [monensin]
LC3-ATG16L1 overlap, as a measure of LAP-like noncanonical autophagy [4]: increase
